{
  "source": "patent US8557855B2",
  "about": "“Methods of using ryanodine antagonists in treating neural injury” (Allergan, Inc., priority 2002, dated 2013)",
  "key": {"retinal ganglion cells [1]": {"tested_on": "retinal ganglion cells", "details": "cited from earlier work"}, "retinal ganglion cells [2]": {"tested_on": "retinal ganglion cells", "type": "in vivo", "details": "rabbit, intravitreal injection, two weeks after injection, normalized to vehicle control", "text": "(§1) To evaluate in vivo neuroprotective effects of dantrolene (DTL) on NMDA-induced injury of RGCs an imaging method to count cell numbers at the RGC layer in the isolated retinas was developed. Briefly, two weeks following intravitreal injection of vehicle or various test agents, a rabbit was euthanized and the treated eye was enucleated. A piece of retina (8 mm in diameter) was cut immediately below the optic nerve head, flat-mounted in a plastic chamber filled with HEPES-buffered Ames medium, and imaged at 25 fields in a 5×5 array with a 40× water immersion objective using an Olympus microscope (BX50WI) equipped with an epi-fluorescence unit. The images were taken with a Hamamatsu C4742-95 digital camera and Image-Pro Plus software (V4.5). The total number of neurons at the ganglion cell layer in these 25 fields was counted. The same measurements were conducted in one control group (rabbits treated with vehicle) and 4 test groups treated with 1) NMDA, 2) dantrolene+NMDA, 3) veratridine (Verat) a neurotoxin that damages retinal ganglion cells with intracellular sodium overload, and 4) dantrolene+veratridine. The results from the 4 test groups are normalized with respect to that of control."}, "retinal ganglion cells [3]": {"tested_on": "retinal ganglion cells", "experiment": "NMDA-induced injury of retinal ganglion cells in vivo in rabbits (cell count at RGC layer)", "details": "rabbit", "text": "as §1"}},
  "data": [
    {"smiles": "CC12CC3CC(C)(C1)CC(N)(C3)C2", "note": "[memantine]", "values": [
      {"measurement": "effect on RGC loss in glaucomatous monkeys", "setting": "retinal ganglion cells [1]", "value": "ameliorates RGC loss"}
    ]},
    {"smiles": "O=C1CN(N=Cc2ccc(-c3ccc([N+](=O)[O-])cc3)o2)C(=O)N1", "note": "[dantrolene, 1-[[5-(p-Nitrophenyl)furfurylidene]amino]hydantoin]", "values": [
      {"measurement": "cell loss caused by veratridine with dantrolene", "setting": "retinal ganglion cells [2]; veratridine alone 56%", "value": 50, "unit": "%"},
      {"measurement": "neuroprotective effect on NMDA-induced damage to ganglion cells (FIG. 1)", "setting": "retinal ganglion cells [3]; intravitreal injection of NMDA", "value": "ameliorated NMDA-induced damage to ganglion cells"},
      {"measurement": "NMDA-induced cell death at the RGC layer after pretreatment with dantrolene", "setting": "retinal ganglion cells [3]; intravitreal injection, two weeks after injection, normalized to vehicle control, NMDA alone 53%", "value": 35, "unit": "%"}
    ]},
    {"smiles": "CN[C@H](CC(=O)O)C(=O)O", "note": "[NMDA]", "values": [
      {"measurement": "loss of cells at the RGC layer caused by NMDA alone", "setting": "retinal ganglion cells [3]; intravitreal injection, two weeks after injection, normalized to vehicle control", "value": 53, "unit": "%"}
    ]},
    {"smiles": "COc1ccc(C(=O)O[C@H]2CC[C@@]3(C)[C@@H]4CC[C@H]5[C@]6(O)C[C@H](O)[C@@]7(O)[C@@H](CN8C[C@@H](C)CC[C@H]8[C@@]7(C)O)[C@]6(O)C[C@@]53O[C@]24O)cc1OC", "note": "[veratridine]", "values": [
      {"measurement": "cell loss at the RGC layer caused by veratridine alone", "setting": "retinal ganglion cells [2]", "value": 56, "unit": "%"}
    ]}
  ]
}
